Assay results published in article PMC7356228, “Alvaxanthone, a Thymidylate Synthase Inhibitor with Nematocidal and Tumoricidal Activities” (Molecules, 2020).
Like-named read-outs stand apart in the source and are kept apart here.

Tests used:
[1] = test system: SCC-15 human squamous carcinoma cells; test: Cytotoxicity, neutral red uptake (NR) assay; format: cell-based; conditions: for IC50: read-out: IC50
Experimental: (§1) Biological effect of alvaxanthone and rheediaxanthone B on normal (BJ) and cancer cells (U-118 MG and SCC-15) was estimated using two viability assays, the neutral red uptake (NR) and tetrazolium salts reduction (XTT) assays.
(§2) Human glioblastoma cells U-118 MG (ATCC® HTB-15), human squamous carcinoma cells SCC-15 (ATCC® CRL-1623), and normal human skin fibroblasts (ATCC® CRL-2522) were grown, their morphology checked, and number and viability estimated as earlier presented.
(§3) Influence of selected compounds on cells was tested by performing the cytotoxicity (NR and XTT) assays, proliferation assay, cell adhesion assay, cell migration assay, determination of intracellular ATP level, and apoptosis assay as previously reported.

[2] = test system: U-118 MG human glioblastoma cells; test: Cytotoxicity, neutral red uptake (NR) assay; format: cell-based; conditions: U-118 MG
Experimental: as §1, §2, §3

C. elegans = test: Toxicity to C. elegans (population growth); conditions: Caenorhabditis elegans, read-out: LC50 (reduction of growth of the nematode population)
Experimental: C. elegans was maintained as previously described. The effect of the compounds studied on C. elegans population growth was determined as earlier presented.

hTS = molecular target: T1, hTS (Homo sapiens, UniProt P04818); test: Inhibition of TS-catalyzed reaction (tritium release from [5-3H]dUMP); format: biochemical
T1 construct: made in house
T1 sequence (P04818 whole entry): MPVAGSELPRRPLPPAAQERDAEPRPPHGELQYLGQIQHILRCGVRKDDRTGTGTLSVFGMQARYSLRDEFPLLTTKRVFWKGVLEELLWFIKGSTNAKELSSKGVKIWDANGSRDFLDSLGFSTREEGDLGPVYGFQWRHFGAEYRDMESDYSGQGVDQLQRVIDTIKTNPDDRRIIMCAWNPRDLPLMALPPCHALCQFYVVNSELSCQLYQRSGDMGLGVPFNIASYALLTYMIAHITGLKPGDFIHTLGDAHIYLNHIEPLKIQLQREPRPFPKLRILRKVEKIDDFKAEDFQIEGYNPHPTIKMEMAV
Text: (§4) The recombinant human, rat, mouse, T. spiralis and C. elegans TS proteins were produced, purified and separated into phosphorylated and non-phosphorylated fraction, as previously described. TS activity was monitored, following tritium release from [5-^3H]dUMP, and its inhibition studied as earlier reported.

mTS = molecular target: T2, mTS (Mus musculus, UniProt P07607); test: as above; format: biochemical; conditions: 20 µM dUMP, 250 µM meTHF
T2 construct: made in house
T2 sequence (P07607 whole entry): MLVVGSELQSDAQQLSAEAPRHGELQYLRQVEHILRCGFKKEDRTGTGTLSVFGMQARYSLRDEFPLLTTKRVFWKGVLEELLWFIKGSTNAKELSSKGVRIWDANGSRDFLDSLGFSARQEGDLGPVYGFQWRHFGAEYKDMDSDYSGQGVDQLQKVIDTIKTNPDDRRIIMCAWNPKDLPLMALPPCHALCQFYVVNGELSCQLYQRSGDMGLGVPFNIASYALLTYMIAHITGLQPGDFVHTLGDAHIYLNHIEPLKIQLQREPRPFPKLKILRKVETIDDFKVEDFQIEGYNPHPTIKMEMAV
Text: as §4

U-118 MG cells [3] = test: Tetrazolium salts reduction (XTT) assay; format: cell-based, human; conditions: U-118 MG vs BJ, 48 h
Experimental: as §1
(§5) Thus, alvaxanthone may be damaging mitochondria and impairing their metabolism exerting one of possible mechanisms active in destroying cancer cells. Changes of cell morphology in dependence on increasing alvaxanthone and rheediaxanthone B concentration were also recorded. While the glioma and squamous carcinoma cells formed clusters, lost their adhesion, shrank, and accumulated less NR dye, normal fibroblasts preserved rather normal shapes but the amount of the neutral red dye and confluence of cells decreased. In addition, a lower number of BJ cells was detected (Figure 1B).
as §3

SCC-15 cells [4] = test: Tetrazolium salts reduction (XTT) assay; format: cell-based, human
Experimental: as §1, §5, §3

U-118 MG cells [5] = test: Proliferation (CyQUANT GR, total cellular DNA content); format: cell-based, human; conditions: 40 μM, 72 h, BJ vs U-118 MG
Experimental: (§6) The influence of alvaxanthone and rheediaxanthone B on cell proliferation (Figure 2) was assessed by quantitative measurement of the total cellular DNA content, proportional to the cell number.
(§7) Figure 2 Proliferation of cancer (U-118 MG and SCC-15) and normal (BJ) cells after 72 h incubation with 5–40 μM alvaxanthone or 1.25–40 μM rheediaxanthone B, determined with the CyQUANT GR Cell Proliferation Assay Kit. Median results are presented of three independent experiments, each performed in triplicate. The whiskers are lower (25%) and upper (75%) quartile ranges. […] Images collected with Olympus IX-83 microscope with contrast phase (scale bar = 100 µm).
as §3

SCC-15 cells [6] = test: as above; format: cell-based, human; conditions: 40 μM, 72 h, BJ vs SCC-15
Experimental: as §6, §7, §3

[7] = test system: normal human gingival fibroblasts (HGF); design: method as in Hou et al. [41]; conditions: 24 h incubation; ref Hou et al. [41]; cited from earlier work
[8] = test system: BJ, U-118 MG and SCC-15 cells; test: NR assay, summary over the three cell lines; format: cell-based, human; conditions: 48 h, span over BJ
Experimental: as §1, §5, §3

[9] = test system: BJ normal human skin fibroblasts; test: Cytotoxicity, neutral red uptake (NR) assay; format: cell-based; conditions: Homo sapiens, Skin fibroblast; neutral red assay, BJ; read-out: IC50
Experimental: as §1, §2, §3

[10] = Cytotoxicity, neutral red uptake (NR) assay; format: cell-based, human; conditions: human, BJ normal skin fibroblasts; NR assay, 40 µM, 48 h, fibroblasts
Experimental: as §1, §2, §3

[11] = test system: caspases 3/7 in BJ, U-118 MG, and SCC-15 cells; test: Apo-ONE Homogenous Caspase-3/7 Assay; format: cell-based, human; conditions: 48 h, 5–40 µM, span over the three cell lines
Experimental: Figure 4 Changes of caspase-3/7 activities and intracellular ATP level in BJ, U-118 MG, and SCC-15 cells after 48-h incubation with 5–40 µM alvaxanthone or rheediaxanthone B. Median results are presented of three independent experiments, each performed in triplicate. The whiskers are lower (25%) and upper (75%) quartile ranges.
The Apo-ONE® Homogenous Caspase-3/7 Assay provides a measurement of the executioner caspases 3/7 activation, characteristic for apoptosis induced via both the intrinsic and extrinsic pathway. It was used to determine apoptosis induction in cells by alvaxanthone and rheediaxanthone B. In each of the three cell lines, compared to the respective non-treated control, treatment with each of the two compounds for 48 h led to a significant activation of the caspases 3/7 (by 2- to 10-fold for alvaxanthone and 8- to 18-fold for rheediaxanthone B), the effect being stronger in cancer than normal cells (Figure 4).
as §3

U-118 MG cells [12] = test: Cell adhesion, crystal violet assay; format: cell-based, human; conditions: 48-h treatment
Experimental: (§8) Cancer metastasis, resulting from an impairment of adhesion between cancer cells and the extracellular matrix may cause cell migration from a primary tumor into distant parts of an organism. The cristal violet assay was used to examine alvaxanthone and rheediaxanthone B ability to influence cellular adhesion.
(§9) Figure 3 Influence of alvaxanthone or rheediaxanthone B on BJ, U-118 MG, and SCC-15 cells adhesion after 48-h treatment. The crystal violet assay was used. Results are medians of triplicate assays of three independent experiments expressed as a % of non-treated controls. The whiskers are lower (25%) and upper (75%) quartile ranges. * p ≤ 0.05, Kruskal–Wallis test (against non-treated control).
as §3

SCC-15 cells [13] = test: Cell adhesion, crystal violet assay; format: cell-based, human; conditions: 48-h treatment
Experimental: as §8, §9, §3

BJ cells = test: Cell adhesion, crystal violet assay; format: cell-based, human; conditions: 48-h treatment
Experimental: as §8, §9, §3

**Q.** Which viability at 40 µM ([1]; Homo sapiens, NR assay, 40 µM, 48 h) does the source give for `C=CC(C)(C)c1c(O)cc2oc3c(O)c(O)cc(CC=C(C)C)c3c(=O)c2c1O` [Alvaxanthone (15), Alvaxanthone] here?
**A.** 1.5%

**Q.** What about the IC50 ([1]; Homo sapiens, SCC-15, neutral red assay) of the same compound?
**A.** 17 µM

**Q.** And the IC50 ([1]; neutral red assay)?
**A.** 17.7 µM

**Q.** What about the viability at 40 µM ([2]; NR assay, 40 µM, 48 h) of the same compound?
**A.** 10%

**Q.** What about the IC50 ([2]; neutral red assay, read-out: IC50) of the same compound?
**A.** 13.1 µM

**Q.** And the LC50 (C. elegans)?
**A.** 4.6 ± 0.57 µM

**Q.** What about the IC50 (hTS; 20 µM dUMP and 50 µM meTHF, mean ± S.E.M. (N=3) for alvaxanthone, rheediaxanthone B not repeated, read-out: IC50) of the same compound?
**A.** 6.3 ± 1.6 µM

**Q.** What about the IC50 (hTS; 20 µM dUMP, 250 µM meTHF, read-out: IC50 Assessment) of the same compound?
**A.** < 10 µM

**Q.** What about the remaining activity at 10 µM (hTS; compound 10 µM, 20 µM dUMP, 250 µM meTHF) of the same compound?
**A.** 39%

**Q.** And the remaining activity at 10 µM (mTS; compound 10 µM)?
**A.** 79%

**Q.** What about the remaining activity at 100 µM (mTS; compound 100 µM, read-out: % Remaining Activity) of the same compound?
**A.** 40%

**Q.** And the “selectivity: more sensitive compared to BJ fibroblasts” value (U-118 MG cells [3])?
**A.** 2.7 fold

**Q.** What about the IC50 (SCC-15 cells [4]; Homo sapiens, SCC-15) of the same compound?
**A.** 17 µM

**Q.** What about the “selectivity: more sensitive compared to BJ fibroblasts” value (SCC-15 cells [4]; SCC-15 vs BJ, 48 h) of the same compound?
**A.** 5.3 fold

**Q.** What about the “proliferation inhibition weaker with normal (BJ) than cancer cells” value (U-118 MG cells [5]) of the same compound?
**A.** 2.3 fold

**Q.** And the “proliferation inhibition weaker with normal (BJ) than cancer cells” value (SCC-15 cells [6])?
**A.** 5.8 fold

**Q.** And the IC50 [7]?
**A.** 25 µM

**Q.** What about the IC50 ([8]; Homo sapiens) of the same compound?
**A.** > 15 µM

**Q.** What about the IC50 [8] of the same compound?
**A.** < 18 µM

**Q.** What about the IC50 [9] of the same compound?
**A.** 15.8 µM

**Q.** What about the viability at 48 h, 40 µM [10] of the same compound?
**A.** 35%

**Q.** What about the “activation of the caspases 3/7 compared to non-treated control” value [11] of the same compound?
**A.** 2- to 10 fold

**Q.** What about the “concentration at which reduction of adhesion is significant/apparent” value (U-118 MG cells [12]) of the same compound?
**A.** 40 µM

**Q.** And the “concentration at which reduction of adhesion is significant/apparent” value (SCC-15 cells [13])?
**A.** 20 µM

**Q.** What about the “concentration at which reduction of adhesion is significant/apparent” value (BJ cells) of the same compound?
**A.** 20 µM
